Data published in patent US7728012B2, “Carboxamide compounds and their use as calpain inhibitors” (Abbott GmbH & Co. KG, priority 2006, dated 2010).

Columns and labels:
Type in all cases: biochemical
[1] = target: T1, recombinant human cathepsin S (Homo sapiens, UniProt P25774); test: Cathepsin S kinetic fluorescence enzyme inhibition assay; conditions: selectivity ratio versus calpain I
T1 construct: purchased Calbiochem 219343; host or cells: E. coli
How it was run: (§1)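 Kinetic fluorescence (ex 390/em 460 nm) at room temperature in 50 mM MES, 2 mM EDTA, 0.05% Brij 35, 2.5 mM L-cysteine, pH 6.0. Cathepsin B (liver, 0.25 nM) with 100 μM Z-Phe-Arg-AMC; cathepsin L (liver, 1 nM) with 2 μM Z-Phe-Arg-AMC; recombinant E. coli cathepsin S (0.5 nM) with 20 μM Z-Val-Val-Arg-AMC. Ki via Cheng-Prusoff.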

[2] = target: T2, cathepsin B isolated from human liver (Homo sapiens, UniProt P07858); test: Cathepsin B kinetic fluorescence enzyme inhibition assay; conditions: selectivity ratio versus calpain I
T2 construct: cathepsin B—isolated from human liver; purchased Calbiochem 219362; host or cells: human liver (tissue isolate)
How it was run: as §1

[3] = target: T3, cathepsin L isolated from human liver (Homo sapiens, UniProt P07711); test: Cathepsin L kinetic fluorescence enzyme inhibition assay; conditions: selectivity ratio versus calpain I
T3 construct: cathepsin L—isolated from human liver; purchased Calbiochem 219402; host or cells: human liver (tissue isolate)
T3 sequence (P07711 114-333): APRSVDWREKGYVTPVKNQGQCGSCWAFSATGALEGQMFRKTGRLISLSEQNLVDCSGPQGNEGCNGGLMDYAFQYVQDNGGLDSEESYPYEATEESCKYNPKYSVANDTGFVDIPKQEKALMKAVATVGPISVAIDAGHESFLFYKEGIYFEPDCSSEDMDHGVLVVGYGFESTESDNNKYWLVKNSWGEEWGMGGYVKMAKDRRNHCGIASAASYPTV
How it was run: as §1

[4] = target: T4, calpain-I isolated from human erythrocytes (Homo sapiens, UniProt P07384); test: Calpain I kinetic fluorescence enzyme inhibition assay; conditions: apparent Ki from IC50 by Cheng-Prussoff; average of 2 to 4 dose-effect plots
T4 construct: calpain-I—isolated from human erythrocytes; purchased Calbiochem 208713; host or cells: human erythrocytes (tissue isolate)
T4 sequence (P07384 1-714): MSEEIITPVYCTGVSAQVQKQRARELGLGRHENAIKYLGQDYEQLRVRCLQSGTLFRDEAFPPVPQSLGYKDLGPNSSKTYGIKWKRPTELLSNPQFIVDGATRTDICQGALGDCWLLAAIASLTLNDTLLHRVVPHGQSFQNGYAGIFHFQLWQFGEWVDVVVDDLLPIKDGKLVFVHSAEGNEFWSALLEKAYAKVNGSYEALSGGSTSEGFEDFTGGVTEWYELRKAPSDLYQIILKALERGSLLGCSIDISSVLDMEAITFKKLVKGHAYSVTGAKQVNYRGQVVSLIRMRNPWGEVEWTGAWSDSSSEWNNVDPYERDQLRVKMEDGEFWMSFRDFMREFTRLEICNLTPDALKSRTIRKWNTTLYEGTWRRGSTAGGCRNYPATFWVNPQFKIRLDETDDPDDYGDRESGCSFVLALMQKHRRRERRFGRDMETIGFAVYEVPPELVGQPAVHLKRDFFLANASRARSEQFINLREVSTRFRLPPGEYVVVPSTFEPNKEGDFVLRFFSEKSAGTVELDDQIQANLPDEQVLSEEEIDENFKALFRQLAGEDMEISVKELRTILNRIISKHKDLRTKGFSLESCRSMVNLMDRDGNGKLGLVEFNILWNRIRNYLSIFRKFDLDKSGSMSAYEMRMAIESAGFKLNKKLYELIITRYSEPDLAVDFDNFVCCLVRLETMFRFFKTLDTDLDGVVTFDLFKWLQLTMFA
T4 sequence (P04632 1-268 partner): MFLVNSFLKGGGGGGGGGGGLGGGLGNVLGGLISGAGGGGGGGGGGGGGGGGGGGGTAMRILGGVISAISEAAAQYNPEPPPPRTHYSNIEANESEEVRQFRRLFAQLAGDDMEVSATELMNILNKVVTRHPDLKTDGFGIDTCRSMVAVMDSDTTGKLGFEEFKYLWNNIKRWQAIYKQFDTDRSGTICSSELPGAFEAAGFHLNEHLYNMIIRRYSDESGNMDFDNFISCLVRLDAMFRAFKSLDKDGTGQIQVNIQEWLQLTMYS

[5] = target: T5, cathepsin K activated from recombinant human procathepsin K (Homo sapiens, UniProt P43235); test: Cathepsin K kinetic fluorescence enzyme inhibition assay; conditions: selectivity ratio versus calpain I
T5 construct: purchased Calbiochem 342001; host or cells: E. coli
T5 sequence (P43235 115-329): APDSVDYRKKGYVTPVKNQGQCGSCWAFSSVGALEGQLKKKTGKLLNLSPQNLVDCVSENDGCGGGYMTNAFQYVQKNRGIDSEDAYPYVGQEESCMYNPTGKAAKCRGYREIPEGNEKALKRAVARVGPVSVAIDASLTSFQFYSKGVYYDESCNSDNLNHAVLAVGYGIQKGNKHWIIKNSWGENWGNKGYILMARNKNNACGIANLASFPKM

T1 sequence (P25774 115-331): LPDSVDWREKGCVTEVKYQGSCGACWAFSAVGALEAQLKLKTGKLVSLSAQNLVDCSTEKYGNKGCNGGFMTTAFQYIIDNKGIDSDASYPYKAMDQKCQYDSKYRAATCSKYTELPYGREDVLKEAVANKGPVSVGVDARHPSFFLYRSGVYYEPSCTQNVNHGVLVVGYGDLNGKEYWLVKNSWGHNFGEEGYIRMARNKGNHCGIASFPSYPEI

| Sel cat. B (Ki(cathepsin B)/Ki(calpain) ratio) [2] | Ki [4] [nM] | Sel cat. K (Ki(cathepsin K)/Ki(calpain) ratio) [5] | Compound | Sel cat. S (Ki(cathepsin S)/Ki(calpain) ratio) [1] | Sel cat. L (Ki(cathepsin L)/Ki(calpain) ratio) [3] |
| --- | --- | --- | --- | --- | --- |
| + (10≦Ki(cathepsin B)/Ki(calpain)<30) | ≤ 40 | + (10≦Ki(cathepsin K)/Ki(calpain)<30) | NC(=O)C(=O)C(Cc1ccccc1)NC(=O)c1cccnc1-n1cc2c(n1)-c1ccccc1CC2 (stereo not drawn) [Example 63, N-(3-Amino-1-benzyl-2,3-dioxopropyl)-2-(4,5-dihydro-2H-benzo[g]indazol-2-yl)nicotinamide] | ++ (Ki(cathepsin S)/Ki(calpain) ratio of ≧100) | ++ (Ki(cathepsin L)/Ki(calpain) ratio of ≧50) |
| + (10≦Ki(cathepsin B)/Ki(calpain)<30) | 40 to 100 | + (10≦Ki(cathepsin K)/Ki(calpain)<30) | NC(=O)C(=O)C(Cc1ccc(Cl)cc1)NC(=O)c1cccnc1-n1ccc(-c2ccc(F)cc2)n1 (stereo not drawn) [Example 67, N-[3-Amino-1-(4-chlorobenzyl)-2,3-dioxopropyl]-2-[3-(4-fluorophenyl)-1H-pyrazol-1-yl]nicotinamide] | ++ (Ki(cathepsin S)/Ki(calpain) ratio of ≧100) | ++ (Ki(cathepsin L)/Ki(calpain) ratio of ≧50) |
| + (10≦Ki(cathepsin B)/Ki(calpain)<30) | 40 to 100 | + (10≦Ki(cathepsin K)/Ki(calpain)<30) | NC(=O)C(=O)C(Cc1ccccc1)NC(=O)c1cccnc1-n1ccc(-c2ccc(N3CCCC3)cc2)n1 (stereo not drawn) [Example 69, N-(3-Amino-1-benzyl-2,3-dioxopropyl)-2-[3-(4-pyrrolidin-1-ylphenyl)-1H-pyrazol-1-yl]nicotinamide] | ++ (Ki(cathepsin S)/Ki(calpain) ratio of ≧100) | ++ (Ki(cathepsin L)/Ki(calpain) ratio of ≧50) |
| + (10≦Ki(cathepsin B)/Ki(calpain)<30) | ≤ 40 | + (10≦Ki(cathepsin K)/Ki(calpain)<30) | NC(=O)C(=O)C(Cc1ccccc1)NC(=O)c1cccnc1-n1ccc(-c2cccc(Cl)c2)n1 (stereo not drawn) [Example 70, N-(3-Amino-1-benzyl-2,3-dioxopropyl)-2-[3-(3-chlorophenyl)-1H-pyrazol-1-yl]nicotinamide] | ++ (Ki(cathepsin S)/Ki(calpain) ratio of ≧100) | ++ (Ki(cathepsin L)/Ki(calpain) ratio of ≧50) |
| + (10≦Ki(cathepsin B)/Ki(calpain)<30) | 40 to 100 | + (10≦Ki(cathepsin K)/Ki(calpain)<30) | NC(=O)C(=O)C(Cc1ccccc1)NC(=O)c1cccnc1-n1ccc(-c2ccccc2C(F)(F)F)n1 (stereo not drawn) [Example 72, N-(3-Amino-1-benzyl-2,3-dioxopropyl)-2-{3-[2-(trifluoromethyl)phenyl]-1H-pyrazol-1-yl}nicotinamide] | ++ (Ki(cathepsin S)/Ki(calpain) ratio of ≧100) | + (30≦Ki(cathepsin L)/Ki(calpain)<50) |
| + (10≦Ki(cathepsin B)/Ki(calpain)<30) | ≤ 40 | + (10≦Ki(cathepsin K)/Ki(calpain)<30) | COc1ccc(CC(NC(=O)c2cccnc2-n2ccc(-c3ccc(F)cc3)n2)C(=O)C(N)=O)cc1 (stereo not drawn) [Example 81, N-[3-Amino-1-(4-methoxybenzyl)-2,3-dioxopropyl]-2-[3-(4-fluorophenyl)-1H-pyrazol-1-yl]nicotinamide] | ++ (Ki(cathepsin S)/Ki(calpain) ratio of ≧100) | ++ (Ki(cathepsin L)/Ki(calpain) ratio of ≧50) |

| Compound | Sel cat. B (Ki(cathepsin B)/Ki(calpain) ratio) [2] | Ki [4] [nM] | Sel cat. K (Ki(cathepsin K)/Ki(calpain) ratio) [5] | Sel cat. S (Ki(cathepsin S)/Ki(calpain) ratio) [1] | Sel cat. L (Ki(cathepsin L)/Ki(calpain) ratio) [3] |
| --- | --- | --- | --- | --- | --- |
| NC(=O)C(=O)C(Cc1ccccc1)NC(=O)c1cccnc1-n1ccc(-c2ccc(F)cc2Cl)n1 (stereo not drawn) [Example 71, N-(3-Amino-1-benzyl-2,3-dioxopropyl)-2-[3-(2-chloro-4-fluorophenyl)-1H-pyrazol-1-yl]nicotinamide] | ++ (Ki(cathepsin B)/Ki(calpain) ratio of ≧30) | 40 to 100 | ++ (Ki(cathepsin K)/Ki(calpain) ratio of ≧30) | ++ (Ki(cathepsin S)/Ki(calpain) ratio of ≧100) | ++ (Ki(cathepsin L)/Ki(calpain) ratio of ≧50) |
| NC(=O)C(=O)C(Cc1ccccc1)NC(=O)c1cccnc1-n1ccc(-c2ccccc2F)n1 (stereo not drawn) [Example 76, N-(3-Amino-1-benzyl-2,3-dioxopropyl)-2-[3-(2-fluorophenyl)-1H-pyrazol-1-yl]nicotinamide] | ++ (Ki(cathepsin B)/Ki(calpain) ratio of ≧30) | ≤ 40 | + (10≦Ki(cathepsin K)/Ki(calpain)<30) | ++ (Ki(cathepsin S)/Ki(calpain) ratio of ≧100) | ++ (Ki(cathepsin L)/Ki(calpain) ratio of ≧50) |
| NC(=O)C(=O)C(Cc1ccccc1)NC(=O)c1cccnc1-n1ccc(-c2ccc(Cl)cc2Cl)n1 (stereo not drawn) [Example 79, N-(3-Amino-1-benzyl-2,3-dioxopropyl)-2-[3-(2,4-dichlorophenyl)-1H-pyrazol-1-yl]nicotinamide] | ++ (Ki(cathepsin B)/Ki(calpain) ratio of ≧30) | 40 to 100 | ++ (Ki(cathepsin K)/Ki(calpain) ratio of ≧30) | ++ (Ki(cathepsin S)/Ki(calpain) ratio of ≧100) | ++ (Ki(cathepsin L)/Ki(calpain) ratio of ≧50) |
| COc1ccc(CC(NC(=O)c2cccnc2-n2ccc(-c3ccccc3)n2)C(=O)C(N)=O)cc1 (stereo not drawn) [Example 80, N-[3-Amino-1-(4-methoxybenzyl)-2,3-dioxopropyl]-2-(3-phenyl-1H-pyrazol-1-yl)nicotinamide] | ++ (Ki(cathepsin B)/Ki(calpain) ratio of ≧30) | 40 to 100 | + (10≦Ki(cathepsin K)/Ki(calpain)<30) | ++ (Ki(cathepsin S)/Ki(calpain) ratio of ≧100) | ++ (Ki(cathepsin L)/Ki(calpain) ratio of ≧50) |
| NC(=O)C(=O)C(Cc1ccccc1)NC(=O)c1cccnc1-n1ccc(-c2cccc(C(F)(F)F)c2)n1 (stereo not drawn) [Example 83, N-(3-Amino-1-benzyl-2,3-dioxopropyl)-2-{3-[3-(trifluoromethyl)phenyl]-1H-pyrazol-1-yl}nicotinamide] | + (10≦Ki(cathepsin B)/Ki(calpain)<30) | ≤ 40 | ++ (Ki(cathepsin K)/Ki(calpain) ratio of ≧30) | ++ (Ki(cathepsin S)/Ki(calpain) ratio of ≧100) | ++ (Ki(cathepsin L)/Ki(calpain) ratio of ≧50) |
| NC(=O)C(=O)C(Cc1ccccc1)NC(=O)c1cccnc1-n1ccc(-c2c(F)cccc2F)n1 (stereo not drawn) [Example 85, N-[3-Amino-2,3-dioxo-1-(phenylmethyl)propyl]-2-[3-(2,6-difluorophenyl)-1H-pyrazol-1-yl]pyridine-3-carboxamide] | + (10≦Ki(cathepsin B)/Ki(calpain)<30) | ≤ 40 | ++ (Ki(cathepsin K)/Ki(calpain) ratio of ≧30) | ++ (Ki(cathepsin S)/Ki(calpain) ratio of ≧100) | ++ (Ki(cathepsin L)/Ki(calpain) ratio of ≧50) |
